Assay results as given in US8188087B2, “Crystalline (3-cyano-1H-indol-7-yl)-[4-(4-fluorophenethyl) piperazin-1-yl]methanone phosphate” (Merck Patent GmbH, priority 2006, dated 2012).
Counter-ions that a name gives are not always drawn.

Columns and labels:
Assay type in all cases: physicochemical
[1] = Solid-state (polymorphic/crystal form) stability
Text: It is disadvantageous for a formulation to comprise a plurality of crystal forms of an active ingredient in that they may have different bioavailabilities and/or stability. Even slight variations in production conditions may compromise the reproducibility of the crystal form and therefore the performance of the formulated product. In addition, poorly crystalline materials are typically less desirable than highly crystalline materials because they are generally more difficult to handle during formulation processes.
The Anhydrate is not stable under the conditions necessary for obtaining an SSNMR spectrum.

[2] = Water retained in the crystal lattice in equilibrium with relative humidity; details: in equilibrium with a relative humidity of about 5% to about 95%
Text: Two new crystalline forms are characterized by, inter alia, x-ray powder diffractometry, or alternatively, solid state nuclear magnetic resonance spectroscopy. One preferred embodiment of the present invention provides for a crystalline (3-cyano-1H-indol-7-yl)-[4-(4-fluorophenethyl)piperazin-1-yl]methanone phosphate hydrate Form I (Form I). Form I is characterized as a non-stoichiometric hydrate in that it retains water about 1.2% by weight of compound (up to approximately ⅓ mole of water per mole of compound) within the crystalline lattice when in equilibrium with a relative humidity of about 5% to about 95%.

[3] = Solubility in the crystallization/isolation solvent systems; details: all of the solvent systems tested; isolation temperatures about 5° C. to about 22° C.
Experimental: Suitable solvents include, but are not limited to, methanol, ethanol, propan-1-ol, propan-2-ol, butan-2-ol, tetrahydrofuran, acetone, and the like. Suitable temperatures for salt formation typically range between about 50° C. to about 75° C. depending on the solvent. One preferred temperature range for salt formation is from the temperature at which the (3-cyano-1H-indol-7-yl)-[4-(4-fluorophenethyl)piperazin-1-yl]methanone is soluble up to the reflux temperature of the solvent. […] However, this may result in a slurry to slurry conversion of (3-cyano-1H-indol-7-yl)-[4-(4-fluorophenethyl)piperazin-1-yl]methanone to the salt.
Isolation temperatures typically range between about 5° C. and about 22° C.

## N#Cc1c[nH]c2c(C(=O)N3CCN(CCc4ccc(F)cc4)CC3)cccc12.O=P(O)(O)O [Anhydrate, (3-cyano-1H-indol-7-yl)-[4-(4-fluorophenethyl)piperazin-1-yl]methanone phosphate anhydrate]
[1]; anhydrous conditions
  crystal form stability under anhydrous conditions: stable
[1]; conditions necessary for obtaining an SSNMR spectrum
  crystal form stability under SSNMR conditions: not stable
[1]; exposure to water, including atmospheric humidity
  crystal form conversion on exposure to water: may be converted to Form I

## N#Cc1c[nH]c2c(C(=O)N3CCN(CCc4ccc(F)cc4)CC3)cccc12.O=P(O)(O)O [Form I, (3-cyano-1H-indol-7-yl)-[4-(4-fluorophenethyl)piperazin-1-yl]methanone phosphate hydrate Form I]
[1]; dehydrating the solid at 0% RH and ambient temperature
  crystal form conversion on dehydration: may be converted to the Anhydrate
[2]
  water retained within the crystalline lattice: about 1.2 % by weight of compound
  water retained within the crystalline lattice (molar): ⅓

## N#Cc1c[nH]c2c(C(=O)N3CCN(CCc4ccc(F)cc4)CC3)cccc12.O=P(O)(O)O [The salt, (3-Cyano-1H-indol-7-yl)-[4-(4-fluorophenethyl)piperazin-1-yl]methanone phosphate]
[3]
  solubility in solvent systems tested: low solubility

## N#Cc1c[nH]c2c(C(=O)N3CCN(CCc4ccc(F)cc4)CC3)cccc12 [hydrochloride salt, (3-cyano-1H-indol-7-yl)-[4-(4-fluorophenethyl)piperazin-1-yl]-methanone, reference compound]
[1]; upon compression during the manufacturing process
  solid form stability upon compression: converts from a single polymorphic form into a second, poorly crystalline, metastable polymorphic form
